In brackets after ≈: the same amount, converted by molar mass. Where two headings read alike, the source gives them in different places.
Columns and labels:
[1] = test system: cell line PC 3; assay: SRB-assay of cell growth, cell line PC 3; format: cell-based, human; conditions: for cell growth by SRB-assay, extinction at 540 nm / cell growth, % of control: PC 3, 10^−6M of Taxol and cyclodextrin; for cell growth, % of control: control = 100%; for toxicity to the cells, in words: PC 3, tested concentration of Table 2 (10^−6M, 0.001 mM)
Protocol: (§1) As control solutions containing similar amounts of cyclodextrins and no Taxol, further the Taxol-Cremophor EL composition. Cremophor EL solution and the untreated cell cultures were examined.
(§2) The experiments were carried out and evaluated on both cell lines according to the examination methods of F. Skehan et al [New Colorimetric Assay of Anticancer Drug Screening, J. Natl. Canc. Inst. 82, 1107-1113 (1990) and A. Martin and M. Clynes (Comparison of 5 Microplate Colorimetric Assays for in Vitro Cytotoxicity Testing and Cell Proliferation Assays, Cytotechnology 11, 49-58 (1993)] in the Pathological and Experimental Cancer Research Institute No. 1 of the Semmelweis Medical University, Budapest.
(§3) The cells were exposed in a RPMI 1640 medium containing 10% of Foetal Calf Serum (FCS) medium on a microplate of 96 wells, by placing 5000 cells in 100 μl of medium.
(§4) The cell cultures were treated after 24 hours with a solution containing the test substances in 100 μl of a FCS-free RPMI medium, thus the final concentration of FCS became 5%. Every evaluation point is the averaged result of 8 parallels, the control was present in 8 parallels on each plate, thus the evaluation point was obtained by averaging 24 parallels. The eight test compositions were examined simultaneously, in one test on each cell line.
(§5) After 72 and 96 hours the cell growth was measured by SRB-assay (the determining method is SRB-painting of the total protein, the total protein is proportional to the cell growth, the extinction was read by a Microplate reader at a wave length of 540 nm).

[2] = test system: cell line K562; assay: SRB-assay of cell growth, cell line K 562; format: cell-based, human; conditions: for cell growth by SRB-assay, extinction at 540 nm / cell growth, % of control: K562, 10−6M of Taxol and cyclodextrin; for cell growth, % of control: control = 100%; for toxicity to the cells, in words: K562, tested concentration of Table 3 (10−6M, 0.001 mM)
Protocol: as §1, §2, §3, §4, §5

[3] = Solubility of Taxol with cyclodextrins and co-solvents, Higuchi-Connor method, HPLC; conditions: for solubility: Taxol with RAMEB
[4] = cited from earlier work
[5] = physchem; conditions: 25 °C, water
[6] = physchem; conditions: 22 °C, thermodynamic from solid
[7] = Appearance and Taxol content of the compositions as prepared; format: physicochemical; conditions: Taxol alone dissolved in ethanol or 1:1 ethanol and water
[8] = cited from earlier work; remark: listed apart in the source
[9] = test system: mouse; conditions: mouse experiments, a 50% triacetine emulsion; cited from earlier work

**Q.** Which results are given for `COC[C@H]1O[C@@H]2O[C@H]3[C@H](O)[C@@H](OC)[C@@H](O[C@H]4[C@H](O)[C@@H](OC)[C@@H](O[C@H]5[C@H](O)[C@@H](OC)[C@@H](O[C@H]6[C@H](O)[C@@H](OC)[C@@H](O[C@H]7[C@H](O)[C@@H](OC)[C@@H](O[C@H]8[C@H](O)[C@@H](OC)[C@@H](O[C@H]1[C@H](O)[C@H]2OC)O[C@@H]8COC)O[C@@H]7COC)O[C@@H]6COC)O[C@@H]5COC)O[C@@H]4COC)O[C@@H]3COC` [DIMEB, heptakis-2,6-0-dimethyl-β-cyclodextrin]?
**A.** cell growth by SRB-assay, extinction at 540 nm ([1]; incubation time 72 hours): 0.725 ± 0.200; cell growth, % of control ([1]; incubation time 72 hours): (96%); cell growth, % of control ([1]; incubation time 96 hours): (102%); toxicity to the cells, in words [1]: not toxic; cell growth by SRB-assay, extinction at 540 nm ([2]; incubation time 72 hours): 0.819 ± 0.178; cell growth, % of control ([2]; incubation time 72 hours): (74%); cell growth by SRB-assay, extinction at 540 nm ([2]; incubation time 96 hours): 1.729 ± 0.185; cell growth, % of control ([2]; incubation time 96 hours): (110%); toxicity to the cells, in words [2]: not toxic

**Q.** For `CC(=O)O[C@H]1C(=O)[C@@]2(C)[C@H]([C@H](OC(=O)c3ccccc3)[C@]3(O)C[C@H](OC(=O)[C@H](O)[C@@H](NC(=O)c4ccccc4)c4ccccc4)C(C)=C1C3(C)C)[C@]1(OC(C)=O)CO[C@@H]1C[C@@H]2O` (relative stereo) [Taxol, [2aR-[2aα,4β,4αβ,6β,9α(αR*,βS*a11α,12α,12aα,12bα]]-β-(benzoylamino)-α-hydroxy-benzene-propanoic acid 6,12-b-bis(acetyloxy)-12-(benzoyloxy)-2a,3-4,4a,5,6,9,10,11,12,12a,12b-dodecahydro-4,11-dihydroxy-4a,8,13,13-tetra-methyl-5-oxo-7,11-methano-1H-cyklodeca[3,4]-benz-[1,2-b]-oxeth-9-yl-ester]], which “remark (appearance)” value ([3]; Taxol 4 mg/ml with γ-CD 1:63, 2:1 ethanol:water, remark wraps over r10-r11: white suspension) is on record?
**A.** Its value is “white”.

**Q.** What about the “remark (appearance)” value ([3]; Taxol 4 mg/ml, no CD, 2:1 ethanol:water, remark wraps over r6-r9: clear solution. opalescening. then white precipitate) of the same molecule?
**A.** Its value is “clear solution”.

**Q.** And the solubility ([3]; molar ratio Taxol:CD 1:278, water)?
**A.** The solubility was 859.9 µg/mL.

**Q.** What about the solubility ([3]; molar ratio Taxol:CD 1:750, water) of the same molecule?
**A.** Its solubility is 42.5 µg/mL.

**Q.** And the solubility ([3]; molar ratio Taxol:CD 1:1500, water)?
**A.** Its solubility is 4.4 µg/mL.

**Q.** And the solubility ([3]; molar ratio Taxol:CD 1.300, water)?
**A.** Its solubility is 231.7 µg/mL.

**Q.** And the solubility ([4]; 250-350 moles of a methylated cyclodextrin derivative related to 1 mole of Taxol (Hungarian application P93 01373))?
**A.** Its solubility is “about 1 mg/ml”.

**Q.** What about the “solubility of Taxol” value ([4]; mixed micelle system with bile acid salts and phospholipide) of the same molecule?
**A.** The value was 800 µg/mL.

**Q.** What about the solubility ([4]; with γ-cyclodextrin, molar ratio of 1:20) of the same molecule?
**A.** The solubility was 160 µg/mL.

**Q.** And the solubility [5]?
**A.** The solubility was 0.55 to 0.59 µg/mL (≈ 0.000644 to 0.000691 mM).

**Q.** What about the solubility at 24 h ([6]; 2:1 ethanol:water, aqueous with cosolvent or surfactant or cyclodextrin) of the same molecule?
**A.** Its solubility at 24 h is 4000 µg/mL (≈ 4.68 mM).

**Q.** And the solubility at 24 h ([6]; DIMEB in 2:1 ethanol:water, aqueous with cosolvent or surfactant or cyclodextrin)?
**A.** Its solubility at 24 h is 4000 µg/mL (≈ 4.68 mM).

**Q.** What about the solubility at 24 h ([6]; DIMEB in water, aqueous with cosolvent or surfactant or cyclodextrin) of the same molecule?
**A.** The solubility at 24 h was ~1000 µg/mL (≈ 1.17 mM).

**Q.** What about the solubility at 24 h ([6]; OH-P-βCD in water, aqueous with cosolvent or surfactant or cyclodextrin) of the same molecule?
**A.** The solubility at 24 h was 100 µg/mL (≈ 0.117 mM).

**Q.** What about the solubility at 24 h ([6]; RAMEB in 2:1 ethanol-water, aqueous with cosolvent or surfactant or cyclodextrin) of the same molecule?
**A.** Its solubility at 24 h is 4000 µg/mL (≈ 4.68 mM).

**Q.** And the solubility at 24 h ([6]; RAMEB in ethanol-water, aqueous with cosolvent or surfactant or cyclodextrin)?
**A.** Its solubility at 24 h is 4000 µg/mL (≈ 4.68 mM).

**Q.** What about the solubility at 24 h ([6]; water) of the same molecule?
**A.** The solubility at 24 h was 5.9 µg/mL (≈ 0.00691 mM).

**Q.** And the solubility at 24 h ([6]; γ-CD in 2:1 ethanol:water, aqueous with cosolvent or surfactant or cyclodextrin)?
**A.** The solubility at 24 h was 4000 µg/mL (≈ 4.68 mM).

**Q.** What about the behaviour on dilution [7] of the same molecule?
**A.** Its behaviour on dilution is “immediately precipitates when diluted”.

**Q.** Which results are given for `OC[C@H]1O[C@@H]2O[C@H]3[C@H](O)[C@@H](O)[C@@H](O[C@H]4[C@H](O)[C@@H](O)[C@@H](O[C@H]5[C@H](O)[C@@H](O)[C@@H](O[C@H]6[C@H](O)[C@@H](O)[C@@H](O[C@H]7[C@H](O)[C@@H](O)[C@@H](O[C@H]8[C@H](O)[C@@H](O)[C@@H](O[C@H]9[C@H](O)[C@@H](O)[C@@H](O[C@H]1[C@H](O)[C@H]2O)O[C@@H]9CO)O[C@@H]8CO)O[C@@H]7CO)O[C@@H]6CO)O[C@@H]5CO)O[C@@H]4CO)O[C@@H]3CO` [γ-CD, γ-cyclodextrin]?
**A.** cell growth by SRB-assay, extinction at 540 nm ([1]; incubation time 72 hours): 0.582 ± 0.126; cell growth, % of control ([1]; incubation time 72 hours): (77%); cell growth by SRB-assay, extinction at 540 nm ([1]; incubation time 96 hours): 0.937 ± 0,214; cell growth, % of control ([1]; incubation time 96 hours): (71%); toxicity to the cells, in words [1]: slightly toxic; cell growth by SRB-assay, extinction at 540 nm ([2]; incubation time 72 hours): 0.555 ± 0.200; cell growth, % of control ([2]; incubation time 72 hours): (50%); cell growth by SRB-assay, extinction at 540 nm ([2]; incubation time 96 hours): 0.531 ± 0,072; cell growth, % of control ([2]; incubation time 96 hours): (34%); toxicity to the cells, in words [2]: very toxic

**Q.** Which ““aqueous” stability constant” value ([8]; aqueous, without methanol) does the source give for `O=C(O)c1ccccc1Nc1cccc(C(F)(F)F)c1` [flufenamic acid] here?
**A.** Its value is 1300 M⁻¹.

**Q.** What about the stability constant ([8]; in the presence of 25% by volume methanol) of the same molecule?
**A.** Its stability constant is “about 400 M^31 1”.

**Q.** With `CC(=O)OCC(COC(C)=O)OC(C)=O` [triacetine, 1,2,3-triacetyl-glycerol] as the molecule, how does the LD50 [9] read?
**A.** Its LD50 is 1.2 mg/mL.

Reference: US6432928B1, “Complexes and their compositions” (Chinoin Gyogyszer es Vegyeszeti Termekek Gyara Rt., priority 1994, dated 2002)
